Assay results reported in ChEMBL document CHEMBL3885861, “Open TG-GATES”.

Organism: Rattus norvegicus
Assay: Open TG-GATES - Regimen: Daily Repeat
Assay type: toxicity, organism-based, Sprague-Dawley
Set-up: regimen Daily Repeat, gender Male, age 6 weeks
Settings: in vivo, po, route gavage; for APTT / Bas / Eos / Fbg / Hb / Ht / Lym / MCH / MCHC / MCV / Mono / Neu / PT / Plat / RBC / Ret / WBC: tissue Blood; for KIDNEY_L / KIDNEY_R / KIDNEY_TOTAL: tissue Kidney; for LIVER: tissue Liver; for A/G / ALP / ALT / AST / BUN / CRE / Ca / Cl / DBIL / GLC / IP / K / LDH / Na / PL / RALB / TBIL / TC / TG / TP / gamma-GTP: tissue Plasma
[1] = 0 mg/kg, 72 h, dose level Control, time 3 day
[2] = 0 mg/kg, […], dose level Control, time 7 day
[3] = 0 mg/kg, […], dose level Control, time 14 day
[4] = 0 mg/kg, […], dose level Control, time 28 day
[5] = 1 mg/kg, 72 h, dose level Middle, time 3 day

CN1C(C(=O)Nc2ccccn2)=C(O)c2sc(Cl)cc2S1(=O)=O [LORNOXICAM]
TERMINAL_BW [1]: 242.5 g | APTT [1]: 20.7 s | Bas [1]: 0.4% | Eos [1]: 1% | Fbg [1]: 223.4 mg/dL | Hb [1]: 12.9 g/dL | Ht [1]: 38.6% | Lym [1]: 79% | MCH [1]: 21 pg | MCHC [1]: 33.5% | MCV [1]: 62.6 fL | Mono [1]: 2.6% | Neu [1]: 16.2% | PT [1]: 11.7 s | Plat [1]: 126.1 x10_4/uL | RBC [1]: 617 x10_4/ul | Ret [1]: 6.1% | WBC [1]: 110.2 x10_2/uL | KIDNEY_L [1]: 1 g | KIDNEY_R [1]: 1 g | KIDNEY_TOTAL [1]: 2.1 g | LIVER [1]: 10.9 g | A/G [1]: 1.7 | ALP [1]: 907.8 IU/L | ALT [1]: 46.2 IU/L | AST [1]: 91.2 IU/L | BUN [1]: 14.4 mg/dL | CRE [1]: 0.4 mg/dL | Ca [1]: 10.6 mg/dL | Cl [1]: 104.2 meq/L | DBIL [1]: 0.094 mg/dL | GLC [1]: 222.6 mg/dL | IP [1]: 6.8 mg/dL | K [1]: 4.1 meq/L | LDH [1]: 253.8 IU/L | Na [1]: 141.6 meq/L | PL [1]: 145.8 mg/dL | RALB [1]: 3.5 g/dL | TBIL [1]: 0.1 mg/dL | TC [1]: 74.2 mg/dL | TG [1]: 97.6 mg/dL | TP [1]: 5.6 g/dL | gamma-GTP [1]: 1.2 IU/L | TERMINAL_BW [2]: 279.8 g | TERMINAL_BW [3]: 335.2 g | TERMINAL_BW [4]: 380.8 g | APTT [2]: 20.1 s | Bas [2]: 0.6% | Eos [2]: 0.8% | Fbg [2]: 230.2 mg/dL | Hb [2]: 13.8 g/dL | Ht [2]: 40.8% | Lym [2]: 82% | MCH [2]: 20.7 pg | MCHC [2]: 33.7% | MCV [2]: 61.4 fL | Mono [2]: 2.2% | Neu [2]: 13.8% | PT [2]: 11.4 s | Plat [2]: 132.2 x10_4/uL | RBC [2]: 664.6 x10_4/ul | Ret [2]: 4.8% | WBC [2]: 106.9 x10_2/uL | APTT [3]: 21.1 s | Bas [3]: 0.6% | Eos [3]: 1% | Fbg [3]: 221.2 mg/dL | Hb [3]: 14 g/dL | Ht [3]: 41% | Lym [3]: 82% | MCH [3]: 20.3 pg | MCHC [3]: 34% | MCV [3]: 59.6 fL | Mono [3]: 2.4% | Neu [3]: 14.2% | PT [3]: 11.5 s | Plat [3]: 121.8 x10_4/uL | RBC [3]: 687.4 x10_4/ul | Ret [3]: 3.7% | WBC [3]: 100 x10_2/uL | APTT [4]: 21.4 s | Bas [4]: 0.6% | Eos [4]: 1.2% | Fbg [4]: 223.4 mg/dL | Hb [4]: 15.8 g/dL | Ht [4]: 45.2% | Lym [4]: 81.6% | MCH [4]: 20.1 pg | MCHC [4]: 35% | MCV [4]: 57.6 fL | Mono [4]: 1.8% | Neu [4]: 14.2% | PT [4]: 11.7 s | Plat [4]: 108.5 x10_4/uL | RBC [4]: 784.8 x10_4/ul | Ret [4]: 2% | WBC [4]: 101.8 x10_2/uL | KIDNEY_L [2]: 1.2 g | KIDNEY_R [2]: 1.2 g | KIDNEY_TOTAL [2]: 2.4 g | KIDNEY_L [3]: 1.3 g | KIDNEY_R [3]: 1.3 g | KIDNEY_TOTAL [3]: 2.6 g | KIDNEY_L [4]: 1.4 g | KIDNEY_R [4]: 1.3 g | KIDNEY_TOTAL [4]: 2.7 g | LIVER [2]: 13 g | LIVER [3]: 14.5 g | LIVER [4]: 14.4 g | A/G [2]: 1.7 | ALP [2]: 1004.8 IU/L | ALT [2]: 33.2 IU/L | AST [2]: 68.4 IU/L | BUN [2]: 14 mg/dL | CRE [2]: 0.4 mg/dL | Ca [2]: 10.8 mg/dL | Cl [2]: 102.8 meq/L | DBIL [2]: 0.1 mg/dL | GLC [2]: 206 mg/dL | IP [2]: 6.7 mg/dL | K [2]: 4 meq/L | LDH [2]: 206 IU/L | Na [2]: 140.4 meq/L | PL [2]: 150 mg/dL | RALB [2]: 3.6 g/dL | TBIL [2]: 0.2 mg/dL | TC [2]: 70.8 mg/dL | TG [2]: 132.8 mg/dL | TP [2]: 5.7 g/dL | gamma-GTP [2]: 1.2 IU/L | A/G [3]: 1.5 | ALP [3]: 781.8 IU/L | ALT [3]: 35.6 IU/L | AST [3]: 66.6 IU/L | BUN [3]: 15.4 mg/dL | CRE [3]: 0.4 mg/dL | Ca [3]: 10.7 mg/dL | Cl [3]: 104.4 meq/L | DBIL [3]: 0.096 mg/dL | GLC [3]: 195 mg/dL | IP [3]: 6.9 mg/dL | K [3]: 4 meq/L | LDH [3]: 196.4 IU/L | Na [3]: 141.2 meq/L | PL [3]: 148.6 mg/dL | RALB [3]: 3.5 g/dL | TBIL [3]: 0.2 mg/dL | TC [3]: 72.8 mg/dL | TG [3]: 118.4 mg/dL | TP [3]: 5.8 g/dL | gamma-GTP [3]: 0.8 IU/L | A/G [4]: 1.4 | ALP [4]: 637.4 IU/L | ALT [4]: 33.6 IU/L | AST [4]: 67.4 IU/L | BUN [4]: 15.8 mg/dL | CRE [4]: 0.5 mg/dL | Ca [4]: 10.1 mg/dL | Cl [4]: 103.8 meq/L | DBIL [4]: 0.1 mg/dL | GLC [4]: 198.2 mg/dL | IP [4]: 6.1 mg/dL | K [4]: 4 meq/L | LDH [4]: 173.2 IU/L | Na [4]: 141.6 meq/L | PL [4]: 142.8 mg/dL | RALB [4]: 3.6 g/dL | TBIL [4]: 0.2 mg/dL | TC [4]: 67.6 mg/dL | TG [4]: 148.2 mg/dL | TP [4]: 6.1 g/dL | gamma-GTP [4]: 1.2 IU/L | TERMINAL_BW [5]: 239.1 g | APTT [5]: 18.8 s | Bas [5]: 0.8% | Eos [5]: 0.8% | Fbg [5]: 276 mg/dL | Hb [5]: 11.8 g/dL | Ht [5]: 35.5% | Lym [5]: 69.8% | MCH [5]: 21 pg | MCHC [5]: 33.2% | MCV [5]: 63.4 fL | Mono [5]: 3.8% | Neu [5]: 24.4% | PT [5]: 11.3 s | Plat [5]: 122.1 x10_4/uL | RBC [5]: 561.4 x10_4/ul | Ret [5]: 6.3% | WBC [5]: 144.7 x10_2/uL | KIDNEY_L [5]: 1.1 g | KIDNEY_R [5]: 1.1 g | KIDNEY_TOTAL [5]: 2.2 g | LIVER [5]: 11.7 g | A/G [5]: 1.4 | ALP [5]: 872.4 IU/L | ALT [5]: 37.2 IU/L | AST [5]: 65 IU/L | BUN [5]: 12 mg/dL | CRE [5]: 0.4 mg/dL | Ca [5]: 10.4 mg/dL | Cl [5]: 104.4 meq/L | DBIL [5]: 0.098 mg/dL | GLC [5]: 220.2 mg/dL | IP [5]: 7.4 mg/dL | K [5]: 4.5 meq/L | LDH [5]: 198.6 IU/L | Na [5]: 140.8 meq/L | PL [5]: 150 mg/dL | RALB [5]: 3 g/dL | TBIL [5]: 0.2 mg/dL | TC [5]: 74 mg/dL | TG [5]: 154 mg/dL | TP [5]: 5.2 g/dL | gamma-GTP [5]: 1.6 IU/L | TERMINAL_BW (1 mg/kg, […], dose level Middle, time 7 day): 275.8 g
